Experimental data from US20230414638A1, “S[…] COMPOUNDS AS AMPK ACTIVATOR AND USES THEREOF” (SOCIETE DES PRODUITS NESTLE S.A., priority 2020, published 2023).
Entries after “also recorded” stand apart in the source; their conditions may differ.

Columns and labels:
AMPK = assay: pACC HTRF assay (Cisbio) in U-2 OS Flp-In T-REx cells; assay type: cell-based; conditions: varying concentrations, 30 mins at 37 C
Protocol: U-2 OS Flp-In T-REx cells were seeded at 50 K in a 96-well plate and left overnight at 37 C in DMEM GlutaMAX (Thermo Fisher Scientific) supplemented with 10% (vol/vol) FBS and 100 U/ml penicillin G, and 100 μg/ml streptomycin. Cells were treated for 30 mins with varying concentrations of Compound 1 in media lacking FBS and then cells were lysed in 50 μl of Cisbio lysis buffer #1 supplemented with blocking solution as per the manufacturer's protocol (Cisbio). Compound 1 is 2,4-dihydroxy-3-[(1R,6R)-3-methyl-6-prop-1-en-2-ylcyclohex-2-en-1-yl]-6-pentylbenzoic acid, also known as Cannabidiolic acid, CAS number: 1244-58-2.
Cells were lysed for 30 mins at room temperature before 16 μl of lysate was incubated with 4 μl of the HTRF antibodies (1:40 dilution of the acceptor and donor (p)ACC antibodies, as per the manufacturers protocol). Lysates were incubated overnight with the antibodies before 665 nm/620 nm ratio was determined using a MolecularDevices i3 plate reader (with a HTRF cartridge add-on).

AMPK β1 WT = assay: pACC HTRF assay in AMPKβ1/β2 double knockout U-2 OS cells stably expressing β1 WT; assay type: cell-based, human; conditions: AMPKβ1β2 double knockout cells stably expressing β1 WT, varying concentrations, 30 mins at 37 C
Description: (§1) A MPKβ1/β2 double knockout U-2 OS Flp-In™ T-Rex™ cell lines were generated by Horizon Discovery (Cambridge, UK). Cells were genotyped and analysed by western blotting to confirm that there was a complete knockout of AMPKβ1/β2. We took these AMPKβ1/β2 double knockout cells, and re-introduced the expression of human β1 wild-type (WT) or a β1 Serine 108 to alanine mutation (S108A). This was achieved using the Flp-In™ system (Invitrogen) present in this cell line and stable cells expressing β1 WT or a β1 S108A mutant were generated according to the manufacturers' protocols. Re-expression of the β1 subunit was confirmed by western blot analysis.
(§2) Cells stably expressing β1 WT or a β1 S108A mutant were treated with varying concentrations of Compound 1 and subjected to the pACC HTRF (Cisbio) assay to determine the level of phosphorylation of the AMPK substrate, ACC, in cell lysates, as in example 1.
We took AMPKβ1/β2 double knockout cells, and re-introduced the expression of human […] or β2 WT isoforms. […] Cells stably expressing β1 WT or β2 were treated with varying concentrations of compound 1 and subjected to the pACC HTRF (Cisbio) assay to determine the level of phosphorylation of the AMPK substrate, ACC, in cell lysates, as in example 1. […]

[1] = tested on: ADaM-binding site AMPK mutant (β1 S108A); assay: pACC HTRF assay in AMPKβ1/β2 double knockout U-2 OS cells stably expressing β1 S108A mutant; assay type: cell-based, human; conditions: AMPKβ1β2 double knockout cells stably expressing β1 S108A mutant, varying concentrations, 30 mins at 37 C
Description: as §1, §2

[2] = tested on: β2-containing AMPK complexes; assay: pACC HTRF assay in AMPKβ1/β2 double knockout U-2 OS cells stably expressing β2 WT; assay type: cell-based, human; conditions: AMPKβ1β2 double knockout cells stably expressing β2 WT, varying concentrations, 30 mins at 37 C
Protocol: We took AMPKβ1/β2 double knockout cells, and re-introduced the expression of human […] or β2 WT isoforms. […] Cells stably expressing β1 WT or β2 were treated with varying concentrations of compound 1 and subjected to the pACC HTRF (Cisbio) assay to determine the level of phosphorylation of the AMPK substrate, ACC, in cell lysates, as in example 1. […] This activation profile is characteristic of activators that bind to the ADaM site and consistent with previous studies showing that ADaM-site activators have poorer activation of β2-containing complexes in vitro and in cells.

[3] = tested on: primary mouse hepatocytes; assay: Lipogenesis ([1-14C]-acetate incorporation into fatty acids) in primary hepatocytes; assay type: cell-based; conditions: varying concentrations, 1 h at 37 C
Protocol: Hepatocyte isolation: The liver was first perfused with 50 ml perfusion buffer (Krebs-Hepes buffer with […] EDTA), followed with 50 ml collagenase A buffer (Krebs-Hepes buffer with 5 mM CaCl2) and 0.5 mg/ml collagenase). After passage through a 100 μm mesh, the cell solution was washed several times with cold media and finally the cell culture pellet was resuspended in culture medium (medium 199 (M199)+GlutaMAX, 100 U/ml penicillin G, and 100 μg/ml streptomycin, 0.1% (wt/vol) BSA, 10% FCS, 10 nM insulin, 200 nM triiodothyronine and 500 nM dexamethasone). Hepatocytes were left to attach (3-4 h) and cultured overnight in M199 supplemented with antibiotics and 100 nM dexamethasone. Cells were used for experiments the following morning.
For lipogenesis measurements in primary hepatocytes, cells were seeded at 600 K cells per well in a 6-well plate overnight. Media was replaced with fresh M199 media alone for 2 hours prior to incubation with varying concentrations of compound 1 for 1 h at 37 C, in the presence of [1-14C]-acetate. The incorporation of [14C] into fatty acids was determined in the lower organic layer after separation from the aqueous phase.

Q: C=C(C)[C@@H]1CCC(C)=C[C@H]1c1c(O)cc(CCCCC)c(C(=O)O)c1O [Compound 1, 2,4-dihydroxy-3-[(1R,6R)-3-methyl-6-prop-1-en-2-ylcyclohex-2-en-1-yl]-6-pentylbenzoic acid] was tested. Which “Phosphorylation of ACC (fold increase in activation)” value (AMPK) did it give?
A: The value was “increased the phosphorylation of the AMPK substrate, acetyl-CoA carboxylase (ACC); also recorded: increases the phosphorylation of the AMPK substrate, ACC, in a dose-dependent manner”.

Q: What about the “Phosphorylation of ACC (fold increase in activation)” value (AMPK β1 WT) of the same compound?
A: The value was “able to dose-dependently increase pACC”.

Q: And the “Phosphorylation of ACC (fold increase in activation)” value [1]?
A: The value was “did not activate AMPK; also recorded: not able to increase pACC”.

Q: And the “Phosphorylation of ACC (fold increase in activation)” value [2]?
A: Its value is “impaired activation of AMPK; also recorded: impaired ability of compound 1 to increase pACC”.

Q: What about the “Lipogenesis (percentage compared to the no treatment control)” value [3] of the same compound?
A: The value was “dose-dependent inhibition of lipogenesis; also recorded: able to inhibit lipogenesis in a dose-dependent manner”.
